This passage reports IC50 results from US10800782B2, “Inhibitors of cellular metabolic processes” (Agios Pharmaceuticals, Inc., priority 2016, dated 2020).

Where only a bound is given, the exact number is not on record here.

The target of this experiment is T1, MAT2A (Homo sapiens, UniProt P31153).
T1 construct: His6; made in house; host or cells: SF9 insect cells
T1 sequence (P31153 whole entry): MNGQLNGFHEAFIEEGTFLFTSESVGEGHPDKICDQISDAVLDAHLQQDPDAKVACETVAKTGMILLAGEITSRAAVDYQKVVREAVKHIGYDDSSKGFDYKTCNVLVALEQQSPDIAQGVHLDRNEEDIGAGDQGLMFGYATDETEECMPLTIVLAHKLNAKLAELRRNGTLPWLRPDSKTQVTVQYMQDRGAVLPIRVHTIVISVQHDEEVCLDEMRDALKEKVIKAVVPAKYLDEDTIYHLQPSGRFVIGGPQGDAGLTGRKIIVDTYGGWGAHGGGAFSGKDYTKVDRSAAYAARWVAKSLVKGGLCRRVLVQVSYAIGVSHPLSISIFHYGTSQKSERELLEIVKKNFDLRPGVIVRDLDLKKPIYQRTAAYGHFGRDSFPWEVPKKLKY
In words: MAT2A biochemical assay (colorimetric inorganic phosphate detection, PiColorLock). The conditions noted are these: recombinant His6-tagged MAT2A 1 μg/ml; 60 minutes preincubation at 25° C.; L-Met 80 μM, ATP 100 μM; 60 minutes reaction; read at 623 nm; read-out: MAT2A Inhibition Score. The method, boiled down:
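Colorimetric malachite green readout of phosphate released when MAT2A turns over L-Met and ATP, after 60 min at room temperature. Enzyme: SF9-expressed His6-tagged MAT2A at 1 μg/ml. Buffer: Tris pH 8.0, 50 mM KCl, 15 mM MgCl2, 300 uM EDTA, 0.005% BSA. Compounds tested as ten-point three-fold dilutions.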
On to `CCOc1ccc(-c2c(C)[nH]c3c(-c4ccccc4)c(-c4ccccc4)nn3c2=O)cc1` [Compound 210, 6-(4-ethoxyphenyl)-5-methyl-2,3-diphenylpyrazolo[1,5-a]pyrimidin-7(4H)-one], for which the IC50 was below 100 nM. As for `Cc1[nH]c2c(-c3ccccc3)c(-c3ccccc3)nn2c(=O)c1-c1ccc2c(c1)OCCO2` [Compound 211, 6-(2,3-dihydrobenzo[b][1,4]dioxin-6-yl)-5-methyl-2,3-diphenylpyrazolo[1,5-a]pyrimidin-7(4H)-one], the figure is below 100 nM. As for `COc1ccc(-c2c(C)[nH]c3c(C4=CCCCC4)c(-c4ccccc4)nn3c2=O)cc1` [Compound 212, 3-(cyclohex-1-en-1-yl)-6-(4-methoxyphenyl)-5-methyl-2-phenylpyrazolo[1,5-a]pyrimidin-7(4H)-one], the IC50 was below 100 nM. As for `COc1ccc(-c2c(C)[nH]c3c(N4CCC(F)(F)CC4)c(-c4ccccc4)nn3c2=O)cc1` [Compound 213, 3-(4,4-difluoropiperidin-1-yl)-6-(4-methoxyphenyl)-5-methyl-2-phenylpyrazolo[1,5-a]pyrimidin-7(4H)-one], the figure is below 100 nM; as for `Cc1[nH]c2c(C3=CCCC3)c(-c3ccccc3)nn2c(=O)c1-c1ccc2ncccc2c1` [Compound 215, 3-(cyclopent-1-en-1-yl)-5-methyl-2-phenyl-6-(quinolin-6-yl)pyrazolo[1,5-a]pyrimidin-7(4H)-one], below 100 nM; as for `Cc1[nH]c2c(C3=CCCCC3)c(-c3ccccc3)nn2c(=O)c1-c1ccc2ncccc2c1` [Compound 216, 3-(cyclohex-1-en-1-yl)-5-methyl-2-phenyl-6-(quinolin-6-yl)pyrazolo[1,5-a]pyrimidin-7(4H)-one], below 100 nM. Take `Cc1[nH]c2c(C3=CCCCO3)c(-c3ccccc3)nn2c(=O)c1-c1ccc2ncccc2c1` [Compound 217, 3-(3,4-dihydro-2H-pyran-6-yl)-5-methyl-2-phenyl-6-(quinolin-6-yl)pyrazolo[1,5-a]pyrimidin-7(4H)-one]: the IC50 is below 100 nM. As for `COc1ccc(-c2c(C)[nH]c3c(C4=CCOCC4)c(-c4ccccc4)nn3c2=O)cc1` [Compound 218, 3-(3,6-dihydro-2H-pyran-4-yl)-6-(4-methoxyphenyl)-5-methyl-2-phenylpyrazolo[1,5-a]pyrimidin-7(4H)-one], the IC50 was below 100 nM. Under `COc1ccc(-c2c(C)[nH]c3c(C4=CCCOC4)c(-c4ccccc4)nn3c2=O)cc1` [Compound 219, 3-(5,6-dihydro-2H-pyran-3-yl)-6-(4-methoxyphenyl)-5-methyl-2-phenylpyrazolo[1,5-a]pyrimidin-7(4H)-one] stands below 100 nM; under `COc1ccc(-c2c(C)[nH]c3c(-c4cc[nH]c4)c(-c4ccccc4)nn3c2=O)cc1` [Compound 220, 6-(4-methoxyphenyl)-5-methyl-2-phenyl-3-(1H-pyrrol-3-yl)pyrazolo[1,5-a]pyrimidin-7(4H)-one], below 100 nM; under `COc1ccc(-c2c(CO)[nH]c3c(-c4ccccc4)c(-c4ccccc4)nn3c2=O)cc1` [Compound 221, 5-(hydroxymethyl)-6-(4-methoxyphenyl)-2,3-diphenylpyrazolo[1,5-a]pyrimidin-7(4H)-one], below 100 nM. Turning to `COc1ccc(-c2c(CN)[nH]c3c(-c4ccccc4)c(-c4ccccc4)nn3c2=O)cc1` [Compound 222, 5-(aminomethyl)-6-(4-methoxyphenyl)-2,3-diphenylpyrazolo[1,5-a]pyrimidin-7(4H)-one], the IC50 is below 100 nM. For `NCc1[nH]c2c(-c3ccccc3)c(-c3ccccc3)nn2c(=O)c1-c1ccc2c(c1)OCCO2` [Compound 223, 5-(aminomethyl)-6-(2,3-dihydrobenzo[b][1,4]dioxin-6-yl)-2,3-diphenylpyrazolo[1,5-a]pyrimidin-7(4H)-one], the IC50 was below 100 nM. As for `NCc1[nH]c2c(-c3ccccc3)c(-c3ccccc3)nn2c(=O)c1-c1ccc2ncccc2c1` [Compound 224, 5-(aminomethyl)-2,3-diphenyl-6-(quinolin-6-yl)pyrazolo[1,5-a]pyrimidin-7(4H)-one], the figure is below 100 nM; as for `O=c1c(-c2ccc3c(c2)OCCO3)c(CO)[nH]c2c(C3=CCCCC3)c(-c3ccccc3)nn12` [Compound 225, 3-(cyclohex-1-en-1-yl)-6-(2,3-dihydrobenzo[b][1,4]dioxin-6-yl)-5-(hydroxymethyl)-2-phenylpyrazolo[1,5-a]pyrimidin-7(4H)-one], below 100 nM; as for `NCc1[nH]c2c(C3=CCCCC3)c(-c3ccccc3)nn2c(=O)c1-c1ccc2c(c1)OCCO2` [Compound 226, 5-(aminomethyl)-3-(cyclohex-1-en-1-yl)-6-(2,3-dihydrobenzo[b][1,4]dioxin-6-yl)-2-phenylpyrazolo[1,5-a]pyrimidin-7(4H)-one], below 100 nM. As for `O=C(CO)NCc1[nH]c2c(-c3ccccc3)c(-c3ccccc3)nn2c(=O)c1-c1ccc2ncccc2c1` [Compound 227, 2-hydroxy-N-((7-oxo-2,3-diphenyl-6-(quinolin-6-yl)-4,7-dihydropyrazolo[1,5-a]pyrimidin-5-yl)methyl)acetamide], the figure is below 100 nM; as for `CC(=O)NCc1[nH]c2c(-c3ccccc3)c(-c3ccccc3)nn2c(=O)c1-c1ccc2ncccc2c1` [Compound 228, N-((7-oxo-2,3-diphenyl-6-(quinolin-6-yl)-4,7-dihydropyrazolo[1,5-a]pyrimidin-5-yl)methyl)acetamide], below 100 nM.

For the molecule `COc1ccc(-c2c(CO)[nH]c3c(C4=CCCCC4)c(-c4ccccc4)nn3c2=O)cc1` [Compound 229, 3-(cyclohex-1-en-1-yl)-5-(hydroxymethyl)-6-(4-methoxyphenyl)-2-phenylpyrazolo[1,5-a]pyrimidin-7(4H)-one], the IC50 is below 100 nM. Consider `O=c1c(-c2ccc3ncccc3c2)c(CO)[nH]c2c(C3=CCCCC3)c(-c3ccccc3)nn12` [Compound 230, 3-(cyclohex-1-en-1-yl)-5-(hydroxymethyl)-2-phenyl-6-(quinolin-6-yl)pyrazolo[1,5-a]pyrimidin-7(4H)-one], for which the IC50 is below 100 nM. Take `O=c1c(-c2ccc3nccnc3c2)c(CO)[nH]c2c(C3=CCCCC3)c(-c3ccccc3)nn12` [Compound 231, 3-(cyclohex-1-en-1-yl)-5-(hydroxymethyl)-2-phenyl-6-(quinoxalin-6-yl)pyrazolo[1,5-a]pyrimidin-7(4H)-one]: the IC50 was below 100 nM. Regarding `COc1ccc(-c2c(CN)[nH]c3c(C4=CCCCC4)c(-c4ccccc4)nn3c2=O)cc1` [Compound 232, 5-(aminomethyl)-3-(cyclohex-1-en-1-yl)-6-(4-methoxyphenyl)-2-phenylpyrazolo[1,5-a]pyrimidin-7(4H)-one], the IC50 is below 100 nM.

As for `NCc1[nH]c2c(C3=CCCCC3)c(-c3ccccc3)nn2c(=O)c1-c1ccc2ncccc2c1` [Compound 233, 5-(aminomethyl)-3-(cyclohex-1-en-1-yl)-2-phenyl-6-(quinolin-6-yl)pyrazolo[1,5-a]pyrimidin-7(4H)-one], the IC50 is below 100 nM.

For the molecule `NCc1[nH]c2c(C3=CCCCC3)c(-c3ccccc3)nn2c(=O)c1-c1ccc2nccnc2c1` [Compound 234, 5-(aminomethyl)-3-(cyclohex-1-en-1-yl)-2-phenyl-6-(quinoxalin-6-yl)pyrazolo[1,5-a]pyrimidin-7(4H)-one], the IC50 is below 100 nM. For `NC(=O)NCc1[nH]c2c(-c3ccccc3)c(-c3ccccc3)nn2c(=O)c1-c1ccc2ncccc2c1` [Compound 235, 1-((7-oxo-2,3-diphenyl-6-(quinolin-6-yl)-4,7-dihydropyrazolo[1,5-a]pyrimidin-5-yl)methyl)urea], the IC50 is below 100 nM.

On to `NCc1[nH]c2c(-c3ccccc3)c(-c3ccccc3)nn2c(=O)c1-c1ccc(O)cc1` [Compound 236, 5-(aminomethyl)-6-(4-hydroxyphenyl)-2,3-diphenylpyrazolo[1,5-a]pyrimidin-7(4H)-one], for which the IC50 is below 100 nM.

Regarding `Cc1[nH]c2c(-c3ccccc3)c(-c3ccccc3)nn2c(=O)c1-c1ccc(O)cc1` [Compound 237, 6-(4-hydroxyphenyl)-5-methyl-2,3-diphenylpyrazolo[1,5-a]pyrimidin-7(4H)-one], the IC50 was below 100 nM. As to `Cc1[nH]c2c(-c3ccccc3)c(-c3ccccc3)nn2c(=O)c1-c1ccc(O)c(F)c1` [Compound 238, 6-(3-fluoro-4-hydroxyphenyl)-5-methyl-2,3-diphenylpyrazolo[1,5-a]pyrimidin-7(4H)-one], the IC50 was below 100 nM.

As for `Cc1[nH]c2c(-c3ccccc3)c(-c3ccccc3)nn2c(=O)c1-c1ccc(O)c(Cl)c1` [Compound 239, 6-(3-chloro-4-hydroxyphenyl)-5-methyl-2,3-diphenylpyrazolo[1,5-a]pyrimidin-7(4H)-one], the IC50 is below 100 nM.

As to `Cc1[nH]c2c(C3=CCCCC3)c(-c3ccccc3)nn2c(=O)c1-c1ccc(O)cc1` [Compound 240, 3-(cyclohex-1-en-1-yl)-6-(4-hydroxyphenyl)-5-methyl-2-phenylpyrazolo[1,5-a]pyrimidin-7(4H)-one], the IC50 was below 100 nM.

As to `NCc1[nH]c2c(C3=CCCCC3)c(-c3ccccc3)nn2c(=O)c1-c1ccc(O)cc1` [Compound 241, 5-(aminomethyl)-3-(cyclohex-1-en-1-yl)-6-(4-hydroxyphenyl)-2-phenylpyrazolo[1,5-a]pyrimidin-7(4H)-one], the IC50 is below 100 nM. As for `Cc1[nH]c2c(-c3ccccc3)c(-c3ccc(O)cc3)nn2c(=O)c1-c1ccc2ncccc2c1` [Compound 242, 2-(4-hydroxyphenyl)-5-methyl-3-phenyl-6-(quinolin-6-yl)pyrazolo[1,5-a]pyrimidin-7(4H)-one], the figure is below 100 nM; as for `COc1ccc(-c2nn3c(=O)c(-c4ccc5ncccc5c4)c(C)[nH]c3c2-c2ccccc2)cc1` [Compound 243, 2-(4-methoxyphenyl)-5-methyl-3-phenyl-6-(quinolin-6-yl)pyrazolo[1,5-a]pyrimidin-7(4H)-one], 1000 to 10000 nM.
